The numbers were not newly measured in patent US10105355B2 (BASF SE, priority 2014, dated 2018), which cites them from elsewhere.

Read-outs that look alike come from different tables or passages of the source.

Take `CS(=O)(=O)c1ccc(C(=O)Nc2ccc(Cl)c(-c3ccccn3)c2)c(Cl)c1` [Vismodegib, 2-Chloro-N-(4-chloro-3-pyridin-2-ylphenyl)-4-methylsulfonylbenzamide]: the “estimated elimination half-life (t½)” value reads like this: (after a single dose treatment) 288 h; (after continuous once-daily dosing) 96 h. In addition, the exposure linearity result (single doses higher than 270 mg) is recorded as “not linear”.
